This is an account of results in patent US12642791B2, “Inhibitors of lysyl oxidases” (UNIVERSITY OF SOUTH CAROLINA, priority 2021, dated 2026).

Each structure is given as a SMILES string.

One data set concerns TM01278 PDX. Description: Doxorubicin-resistant TNBC PDX tumors. It is filed as in vivo. On the procedure: FIG. 27. Targeting LOX in TNBC PDX organoids or tumors overcomes resistance. A. Scheme showing the selection pipeline of PDXs for in vivo testing. B. Correlation analysis of LOX mRNA expression with hypoxia and focal adhesion scores in 15 different TNBC PDX models. Red dots show the positions of the selected TM01278. C. Representative images of TM01278 PDX organoids at day 0 and day 9 after treatment with doxorubicin (40 nM) and BAPN (25 mM) treatment, alone or in combination (left) and quantification of organoid diameter upon combination therapy for 9 days (right) (n=12 (vehicle, Doxo, BAPN), n=11 (Doxo+BAPN)). D. Tumor growth of TM01278 PDX upon treatment with doxorubicin (2 mg/kg) and BAPN (100 mg/kg), alone or in combination (n=5). […] E. Quantification of Picrosirius red staining in PDX tumors from D (n=4). F. Doxorubicin fluorescence quantification in tumors from D (n=6). G. Western Blots of FAK/Src signaling in PDXs treated with doxorubicin and BAPN alone or in combination.

The conditions of data set [1]: in vivo; cited from earlier work.
Data set [2] has as its system cellular lysyl oxidase (LOX) activity, MDA-MB-231 cells. As to the kind of experiment: Cell-based lysyl oxidase activity assay (Abcam kit). Details: species or system human. The settings on record: read-out: IC50 for cellular lysyl oxidase inhibition. The text has this:
As the available LOX inhibitors are either not very potent or have toxicity, the inventors developed a robust screening pipeline shown in FIG. 28 to identify potent and safe LOX-specific and pan-LOX inhibitors. Briefly, a high-throughput cell-based LOX activity (Abcam) screen (HTS) was done for more than 5,000 drug-like compounds from the EXPRESS-Pick diversified library (4,480 molecules, ChemBridge) and Tocriscreen library of bioactive compounds (1,280 compounds, Tocris), each at a single concentration of 10 μM. […] The toxic molecules were counter screened with cell cytotoxicity assay and filtered out.
FIGS. 34. […] IC50 for cellular lysyl oxidase activity upon treatment of MDA-MB-231 cells with different LOX inhibitors. uM=microM.
For cell-based lysyl oxidase activity, fluorometric Lysly Oxidase Activity Assay Kit (Abcam, USA) was used according to manufacturer's instructions. Briefly, after the treatment, 50 μl of supernatant from each well was incubated with reagent mix and fluorescence measured in multimode-reader at Ex/Em=540/590 nm wavelength.

Another data set concerns MDA-MB-15714. As to the kind of experiment: Doxorubicin re-sensitization of collagen I-embedded TNBC cells. It is filed as cell-based, human.
The test system of a further data set is TM01278 PDX organoids. Description: PDX-derived TNBC organoids, combination with doxorubicin. The settings on record: BAPN (25 mM) with doxorubicin (40 nM), 3D culture with collagen I, 9 days. It is filed as cell-based, human. On the procedure: FIG. 36. Combination of 6403 and 6415 with doxorubicin reduced the growth of the TNBC organoids. A. Representative images of TM01278 PDX organoids at day 0 and day 9 after treatment with doxorubicin (50 nM) and 6403 and 6415 treatments, alone or in combination. B. Quantification of organoid diameter and viability upon combination therapy for 9 days.
TNBC organoids were established from a fresh surgical tissue by cutting the tumor into small pieces and incubating in collagenase A solution with ROCK inhibitor on a shaker at 37° C. for 30 minutes. The collagenase activity was inhibited by adding FBS, and pipetting was done to ensure the formation of almost a single cell solution. After several washes with PBS, the cell pellet was dissolved in matrigel. Breast organoid media containing ROCK and GSK inhibitors was added after the Matrigel solidified. See, Sachs, N. et al. A Living Biobank of Breast Cancer Organoids Captures Disease Heterogeneity. Cell 172, 373-386 e310, doi:10.1016/j.cell.2017.11.010 (2018). For drug testing studies, organoids were disrupted to single cells by digesting at 37° C. for 30 mins with TrypLE (A1217701, Gibco, NY, USA) in the presence of 10 μM Rock inhibitor (s1049, Selleckchem, TX, USA). Organoids were plated into wells of 96 well plate (20.000 cells/well) on a collagen-coated surface with media containing 2% Matrigel (356252, Corning, NY, USA). Drugs were added 72 hours after plating. Cells were grown in the presence of drug or vehicle for 9 days, and photos were taken from each well to show the organoid size. Organoid viability was measured by using 3D Cell Titer Glo (Promega, USA) kit.

The next data set has as its system MDA-MB-43614. As to the kind of experiment: Doxorubicin re-sensitization of collagen I-embedded TNBC cells. Format: cell-based, human.
The subject of another data set is MDA-MB-231 xenografts. Description: Acquired doxorubicin resistant xenografts. The settings on record: BAPN 100 mg/kg added to doxorubicin 2.5 mg/kg. Format: in vivo. On the procedure: To test the ability of LOX inhibition to overcome doxorubicin resistance in chemotherapy-refractory TNBC in vivo, the inventors first treated MDA-MB-231 xenografts with doxorubicin until an accelerated tumor growth was achieved.
At this point, BAPN (100 mg/kg) was added to half of the doxorubicin-resistant tumors while the rest continued to receive doxorubicin alone (2.5 mg/kg).
FIG. 26. Inhibiting LOX overcomes resistance in acquired doxorubicin resistant MDA-MB-231 xenografts. A. Tumor growth in xenografts treated with low dose doxorubicin until resistance develops followed by treatment with the combination of doxorubicin (2.5 mg/kg) and the LOX inhibitor, BAPN (100 mg/kg). B. Relative LOX activity in tumors from A. C. Representative images of Picrosirius red in tumors from A.

For data set [3], the system named is MDA-MB-231 cells embedded in collagen I. Description: ECM crosslinking by collagen and fibronectin immunofluorescence staining. Format: cell-based, human. On the procedure: FIG. 31. […] A. Inhibition of LOX activity in MDA-MB-231 cells treated with 5 μM of the LOX inhibitors. B. Doxorubicin sensitization with 6232 and its analogs, 6403 and 6415, in 3D collagen-I culture. C. Collagen and fibronectin staining of vehicle or 6232 or 6403 or 6415-treated MDA-MB-231 cells embedded in collagen I. BAPN is used as a positive control.
(§1) Immunofluorescence staining of cells was done in μ-Slide 8-well glass bottom chambers (Ibidi, Germany). Cells were fixed with 4% paraformaldehyde for 20 min, permeabilized with 0.5% Triton X-100 for 10 min and blocked in 5% BSA-PBS. Samples were incubated with primary (Collagen I, Fibronectin, F-actin, a-SMA) and secondary Alexa Fluor 647 or 488-labeled antibodies for 1.5 hours at room temperature. Cells were also counterstained with DAPI for 5 min. Images were acquired using ZEN 2012 SP5 (Black) LSM 700 (Carl Zeiss, DE).

The subject of the next data set is MDA-MB-231 cells. As to the kind of experiment: Doxorubicin chemosensitization in 3D collagen I culture. It is filed as cell-based, human. The settings on record: collagen I-embedded cells, combination with doxorubicin. On the procedure: Collagen solution was prepared at a concentration of 0.5-1 mg/ml from the rat tail collagen I (Corning, USA) with a neutralization step including the addition of 1N NaOH solution. Cells were trypsinazed and resuspended in collagen:matrigel mix (1:1). 8×10^3 cells were seeded into 96-well or μ-Slide 8-well glass bottom chambers. After 1 hour of incubation at room temperature, media was added on top of the solidified collagen:matrigel mix. Drug treatments were done 12 hours after cell seeding.
Cells were embedded in type I collagen:matrigel mix as described above. Cells were grown in the presence of doxorubicin or LOX inhibitors alone or combination of LOX inhibitors with doxorubicin for 48 hours. After the treatment, cell viability was measured by using 3D Cell Titer Glo (Promega, USA) kit.

The next data set concerns Caki-1 cells. As to the kind of experiment: ECM crosslinking in kidney cancer cells. It is filed as cell-based, human. The settings on record: 6232 at 10 uM, BAPN at 10 mM. On the procedure: as §1

Usually IC50 stands for the point on the concentration scale where inhibition reaches its midpoint. On to `N#CCCN` [BAPN, 6-aminopropionitrile], for which, in the data set with TM01278 PDX (BAPN 100 mg/kg), the LOX activity entry is “reduced”, the doxorubicin penetration entry was “enhanced doxorubicin penetration” and the fibrillar collagen content result is “reduced”. Further, in the data set on TM01278 PDX (BAPN 100 mg/kg with doxorubicin 2 mg/kg), the tumor growth entry is given as “reduced tumor growth”. For the same compound, in data set [1], the “toxicity in the clinic” value is reported as “showed toxicity in the clinic”. The IC50 in data set [2] is > 100 µM. The doxorubicin re-sensitization result in the data set with MDA-MB-15714 was “re-sensitized”. Besides, the tumor organoid size entry with TM01278 PDX organoids is reported as “significantly decreased tumor organoid size”. Further, the doxorubicin re-sensitization entry in the data set with MDA-MB-43614 was “re-sensitized”. In the data set with MDA-MB-231 xenografts, the “LOX activity in tumors” value is “reduction in LOX activity”, the “fibrillar collagen in tumors” value is recorded as “reduction”, the survival entry is “improved survival” and the tumor growth result is “significant decrease in tumor growth”. Also, the “ECM crosslinking (collagen and fibronectin staining)” value in data set [3] is “decrease in ECM crosslinking”. The doxorubicin sensitization entry in the data set with MDA-MB-231 cells is on record as “re-sensitized”. Further, the ECM crosslinking entry in the data set with Caki-1 cells is listed as “decrease in ECM crosslinking”.
